Molecular target: PI3K delta (Homo sapiens, UniProt O00329)
Experiment: Luciferase-coupled chemiluminescence kinase assay (ATP consumption, KinaseGlo)
Format: biochemical
How it was run: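 Compound, kinase and ATP (≤ KM) reacted 2 h at ambient temperature, then remaining ATP quantified with luciferase-luciferin (KinaseGlo) luminescence as percent consumed.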

Chain of PI3K delta (O00329 whole entry): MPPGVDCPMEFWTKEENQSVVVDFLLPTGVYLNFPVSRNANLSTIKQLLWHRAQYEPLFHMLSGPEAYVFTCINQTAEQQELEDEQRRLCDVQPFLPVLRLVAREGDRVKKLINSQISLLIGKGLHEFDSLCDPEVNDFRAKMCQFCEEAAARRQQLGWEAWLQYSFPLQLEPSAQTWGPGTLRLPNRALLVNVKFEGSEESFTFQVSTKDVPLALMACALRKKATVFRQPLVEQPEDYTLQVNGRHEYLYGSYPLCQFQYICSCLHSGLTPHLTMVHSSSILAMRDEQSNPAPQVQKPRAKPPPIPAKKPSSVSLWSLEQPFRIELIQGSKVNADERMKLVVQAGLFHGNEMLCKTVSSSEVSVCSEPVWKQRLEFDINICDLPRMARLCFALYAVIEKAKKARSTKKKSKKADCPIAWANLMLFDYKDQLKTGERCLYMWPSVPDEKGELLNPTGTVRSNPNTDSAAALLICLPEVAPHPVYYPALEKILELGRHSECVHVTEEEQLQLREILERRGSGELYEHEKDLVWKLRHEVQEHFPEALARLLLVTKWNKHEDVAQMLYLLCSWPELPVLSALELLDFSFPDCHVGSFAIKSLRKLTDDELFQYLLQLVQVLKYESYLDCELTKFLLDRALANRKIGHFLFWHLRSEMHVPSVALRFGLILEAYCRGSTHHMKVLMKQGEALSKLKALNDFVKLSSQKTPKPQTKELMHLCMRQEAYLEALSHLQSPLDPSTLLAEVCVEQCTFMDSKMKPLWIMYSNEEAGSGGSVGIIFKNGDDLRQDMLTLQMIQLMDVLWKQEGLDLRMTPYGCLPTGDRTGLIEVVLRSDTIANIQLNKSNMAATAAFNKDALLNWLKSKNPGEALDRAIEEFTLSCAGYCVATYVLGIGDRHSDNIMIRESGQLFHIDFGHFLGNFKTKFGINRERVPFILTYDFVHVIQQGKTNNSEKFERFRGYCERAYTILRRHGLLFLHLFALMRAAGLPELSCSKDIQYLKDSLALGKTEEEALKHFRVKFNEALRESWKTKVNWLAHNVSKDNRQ
Chain of PI3K delta (P27986 whole entry partner): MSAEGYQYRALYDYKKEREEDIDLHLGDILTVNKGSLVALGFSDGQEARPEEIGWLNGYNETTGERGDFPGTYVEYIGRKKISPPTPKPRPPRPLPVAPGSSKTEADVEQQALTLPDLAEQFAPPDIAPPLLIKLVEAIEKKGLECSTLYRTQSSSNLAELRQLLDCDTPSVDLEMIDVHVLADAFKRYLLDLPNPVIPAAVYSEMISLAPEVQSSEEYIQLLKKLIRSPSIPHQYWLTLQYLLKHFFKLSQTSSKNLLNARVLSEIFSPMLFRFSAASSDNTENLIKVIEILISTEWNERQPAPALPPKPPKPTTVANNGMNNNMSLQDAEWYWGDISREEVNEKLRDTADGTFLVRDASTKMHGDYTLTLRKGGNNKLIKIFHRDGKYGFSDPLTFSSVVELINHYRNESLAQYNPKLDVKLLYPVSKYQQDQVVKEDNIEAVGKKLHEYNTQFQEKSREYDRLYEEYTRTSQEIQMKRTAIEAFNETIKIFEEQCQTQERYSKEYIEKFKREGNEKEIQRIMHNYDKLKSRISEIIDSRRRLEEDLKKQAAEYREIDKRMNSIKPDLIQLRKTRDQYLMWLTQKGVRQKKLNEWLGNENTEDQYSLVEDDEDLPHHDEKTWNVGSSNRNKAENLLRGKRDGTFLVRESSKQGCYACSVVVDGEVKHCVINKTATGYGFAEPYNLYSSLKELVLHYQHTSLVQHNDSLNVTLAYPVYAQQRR

| IC50 | SMILES |
| --- | --- |
| < 50 nM | Cn1c(-c2cncc(Br)c2)nc2c(N3CCC(n4c(=O)[nH]c5ccccc54)CC3)ncnc21 [Compound 285, 1-{1-[8-(5-bromopyridin-3-yl)-9-methyl-9H-purin-6-yl]piperidin-4-yl}-1,3-dihydro-2H-benzimidazol-2-one] |
| < 50 nM | CC(C)c1nnc(-c2nc3c(N4CCC(n5c(=O)[nH]c6ccccc65)CC4)ncnc3n2C)o1 [Compound 122, 1-(1-{9-methyl-8-[5-(1-methylethyl)-1,3,4-oxadiazol-2-yl]-9H-purin-6-yl}piperidin-4-yl)-1,3-dihydro-2H-benzimidazol-2-one] |
| 500 to 1500 nM | Cn1cc(-c2nc3c(N4CCN(c5ccccc5CNC(=O)C5CC5)CC4)ncnc3n2C)cn1 [Compound 362, N-[(2-{4-[9-methyl-8-(1-methyl-1H-pyrazol-4-yl)-9H-purin-6-yl]piperazin-1-yl)phenyl)methyl]cyclopropane-carboxamide] |
| < 50 nM | CCCc1nnc(-c2nc3c(N4CCC(n5c(=O)[nH]c6ccccc65)CC4)ncnc3n2C)o1 [Compound 123, 1-{1-[9-methyl-8-(5-propyl-1,3,4-oxadiazol-2-yl)-9H-purin-6-yl]piperidin-4-yl}-1,3-dihydro-2H-benzimidazol-2-one] |
| 250 to 500 nM | CCn1c(C(=O)NCc2nnc(C)o2)nc2c(N3CCC4(CC3)C(=O)Nc3ccccc34)ncnc21 [Compound 207, 9-ethyl-N-[(5-methyl-1,3,4-oxadiazol-2-yl)methyl]-6-(2-oxo-1,2-dihydro-1′H-spiro[indole-3,4′-piperidin]-1′-yl)-9H-purine-8-carboxamide] |
| 250 to 500 nM | Cn1cc(-c2nc3c(N4CCN(S(=O)(=O)c5ccccc5C#N)CC4)ncnc3n2C)cn1 [Compound 381, 2-({4-[9-methyl-8-(1-methyl-1H-pyrazol-4-yl)-9H-purin-6-yl]piperazin-1-yl}sulfonyl)benzonitrile] |
| < 50 nM | CCn1c(-c2cnc(OC)nc2)nc2c(N3CCC(n4c(=O)[nH]c5ccccc54)CC3)ncnc21 [Compound 306, 1-(1-{9-ethyl-8-[2-(methyloxy)pyrimidin-5-yl]-9H-purin-6-yl}piperidin-4-yl)-1,3-dihydro-2H-benzimidazol-2-one] |
| 50 to 250 nM | Cn1c(C(=O)NCCCCO)nc2c(N3CCC(n4c(=O)[nH]c5ccccc54)CC3)ncnc21 [Compound 42, N-(4-hydroxybutyl)-9-methyl-6-[4-(2-oxo-2,3-dihydro-1H-benzimidazol-1-yl)piperidin-1-yl]-9H-purine-8-carboxamide] |
| 500 to 1500 nM | Cn1c(C(=O)NCC2CCCCC2)nc2c(N3CCC4(CC3)C(=O)Nc3ccccc34)ncnc21 [Compound 88, N-(cyclohexylmethyl)-9-methyl-6-(2-oxo-1,2-dihydro-1′H-spiro[indole-3,4′-piperidin]-1′-yl)-9H-purine-8-carboxamide] |
| 50 to 250 nM | Cn1c(C(=O)NCC2CC2)nc2c(N3CCC4(CC3)c3ccccc3CC4O)ncnc21 (stereo not shown) [Compound 130, N-(cyclopropylmethyl)-6-(2-hydroxy-2,3-dihydro-1′H-spiro[indene-1,4′-piperidin]-1′-yl)-9-methyl-9H-purine-8-carboxamide] |
| 50 to 250 nM | Cn1c(C(=O)NCC2CC2)nc2c(N3CCC(n4c(=S)[nH]c5ccccc54)CC3)ncnc21 [Compound 169, N-(cyclopropylmethyl)-9-methyl-6-[4-(2-thioxo-2,3-dihydro-1H-benzimidazol-1-yl)piperidin-1-yl]-9H-purine-8-carboxamide] |
| < 50 nM | CCn1cc(-c2nc3c(N4CCC(n5c(=O)[nH]c6ncccc65)CC4)ncnc3n2CC)cn1 [Compound 325, 1-{1-[9-ethyl-8-(1-ethyl-1H-pyrazol-4-yl)-9H-purin-6-yl]piperidin-4-yl}-1,3-dihydro-2H-imidazo[4,5-b]pyridin-2-one] |
| < 50 nM | CCn1ncc(-c2nc3c(N4CCC(n5c(=O)[nH]c6ncccc65)CC4)ncnc3n2C)c1C [Compound 337, 1-{1-[8-(1-ethyl-5-methyl-1H-pyrazol-4-yl)-9-methyl-9H-purin-6-yl]piperidin-4-yl}-1,3-dihydro-2H-imidazo[4,5-b]pyridin-2-one] |
